How the values were obtained:
[1] = toxicological study, lethal doses (Table IA); conditions: mouse, in vivo
Source text: The results relating to toxicology are brought together in Table IA below:

[2] = tested on: L1210 U.S.A. strain; assay: antitumor activity on leukemia L1210 U.S.A., compounds of formula IA, I.P.; assay type: in vivo, mouse
Procedure: On the day of the graft (by convention day 0=DO) an inoculum of 1×10^5 tumor cells in a volume of 0.2 ml is administered to each mouse by the intraperitoneal route (I.P.).
(§1) This inoculum is prepared by diluting ascites fluid taken from the peritoneum of a donor female mouse in NCTC 109 medium (Eurobio Laboratories Paris, France), counting of the cells in a MALASSEZ cell under a microscope and adjustment of the concentration to 5×10^5cells per ml.
After the tumor graft has been made, the mice are distributed at random in cages of 5 animals. Subsequently, these cages containing 5 mice are themselves distributed at random into a control group (control) and groups treated with the products of the invention.
(§2) The doses of the products of the invention used in the different experiments are expressed in milligrams per kilogram of body weight.
(§3) The products to be injected were dissolved in isotonic sodium chloride solution.
Two protocols for treatment were used in the different experiments:
(§4) or 3 I.P. injections on D1, D5, D9.
(§5) In each experiment the animals of the control group received 1 or more injections, depending on the experimental protocol used, by the same route (I.P. or I.V.) of the same volume (0.2 ml/20 g) of the vehicle not containing the active principle (isotonic sodium chloride solution).
(§6) the number and percentage of the total of the mice surviving to D60,
(§7) the T/C×100 for treated groups.
(§8) T representing the mean survival time of the mice in the treated group
(§9) C representing the mean survival time of the mice in the control group (control).

[3] = tested on: melanoma B16; assay: antitumor activity on melanoma B16, compounds of formula IA, I.P.; assay type: in vivo, mouse; conditions: B6 D2 F1, I.P. D1, D5, D9, 3×10 mg/kg
Procedure: The experiments were always carried out on SPF female mice B6 D2 F1/JIco (first generation hybrids between the lines C5BL/6 and DBA/2).
On the day of the graft (Day 0) an inoculum of 2×10^6 tumor cells in a volume of 0.5 ml is administered to each mouse by the intraperitoneal route (I.P.). This inoculum is prepared from a sub-cutaneous tumor excised from a donor female mouse. After excision the tumor is fragmented by means of a pair of scissors in the NCTC 109 medium. After filtration through sterile gauze in order to remove large cellular fragments, the homogeneous cell suspension obtained is counted by means of a MALASSEZ cell and diluted to the desired concentration (4×10^6 tumor cells per ml) by dilution with the NCTC 109 medium.
This was performed in the manner described previously for the leukemia L1210.
as §2, §3, §4, §5, §6, §7, §8, §9

[4] = tested on: L1210 U.S.A.; assay: antitumor activity on leukemia L1210 U.S.A., products of examples 33-39, I.P.; assay type: in vivo, mouse
Procedure: The experiments were always carried out on female mice which were specific pathogen-free (S. P. F.),
either of the line DBA/2JIco
or of the line B6 D2 F1/JIco (first generation hybrids between the lines C57BL/6 and DBA/2).
On the day of the graft (by convention day 0=D0) an inoculum of 1×10^5 tumor cells in a volume of 0.2 ml is administered to each mouse by the intraperitoneal route (I.P.).
as §1, with “Laboratories,” for “Laboratories”, “[…] by means of the same medium.” for “ml.”
The tumor line is an American strain of the line L1210.
After the tumor graft, the mice are distributed at random in cages of 5 animals. Subsequently, these cages containing 5 mice are themselves distributed at random into a control group (control) and groups treated with the I.C. products.
as §2, §3
2 protocols for treatment were used in the different experiments:
either a single injection on D1, by the intraperitoneal (I.P.) or intravenous (I.V.) route,
as §4
In each experiment the animals of the control group received 1 or more injections, depending on the experimental protocol used, by the same route (I.P. or I.V.) of the same volume (0.2 ml/20 g) of the vehicle without the active principle (isotonic sodium chloride solution).
as §6
the T/C×100 for the treated groups.
T representing the mean survival time of the mice in the treated group,
C representing the mean survival time of the mice in the control group (controls).

[5] = toxicological results, single I.P. dose, DL0 and DL50; assay type: in vivo, mouse; conditions: mice
Source text: DL0, DL50, single I.P. dose administered to the aforementioned strains of mice.

[6] = B6 D2 F1, I.P. D1, D5, D9, 3×1.25 mg/kg
[7] = B6 D2 F1, I.P. D1, D5, D9, 3×5 mg/kg
[8] = DBA2, I.P. D1, D5, D9, 3×2.5 mg/kg
[9] = DBA2, I.P. D1, D5, D9, 3×10 mg/kg

CO[C@@H]1O[C@H](COC(=O)c2ccccc2)C[C@H](NC(=O)N(CCCl)N=O)[C@H]1O [CI. 1674, methyl 3-[3-(2-chloroethyl)-3 nitrosoureido] 6-benzoyl 3,4-dideoxy-β-D-xylo-hexopyranoside]
LD0 [1]: ≥ 40 mg/kg
Number of survivors at D60 [2, 6]: 0/10
T/C [2, 6]: 111
Number of survivors at D60 [2, 7]: 0/10
T/C [2, 7]: 130

CO[C@H]1O[C@H](CO)C[C@H](NC(=O)N(CCCl)N=O)[C@H]1O [CI. 1677, methyl 3-[3-(2-chloroethyl) 3-nitroso-ureido] 3,4-dideoxy-α-D-xylo-hexopyranoside]
LD90 [1]: ≤ 20 mg/kg
Number of survivors at D60 [2, 6]: 0/10
T/C [2, 6]: 157
Number of survivors at D60 [2, 7]: 6/10
T/C [2, 7]: > 600
Number of survivors at D60 [3]: 7/10
T/C [3]: 257

CO[C@H]1O[C@@H](C)C[C@@H](NC(=O)N(CCCl)N=O)[C@@H]1O [IC. 85-1627, methyl 3-[3-(2-chloroethyl) 3-nitrosoureido] 3,4,6-trideoxyβ-L-xylo-hexopyranoside]
Number of survivors on D60 ([4]; DBA2, I.P. D1, 1×20 mg/kg): 3/10
Number of survivors on D60 [4, 8]: 0/10
T/C [4, 8]: 141
Number of survivors at D60 [4, 9]: 6/10
T/C [4, 9]: > 600
DL0 [5]: ≥ 40 mg/kg

CO[C@H]1O[C@H](CO)[C@H](Cl)[C@H](NC(=O)N(CCCl)N=O)[C@H]1O [CI. 1676, methyl 4-chloro 3-[3-(2-chloro-ethyl) 3-nitrosoureido] 3,4-dideoxy-α-D-galacto-hexopyranoside]
LD0 [1]: ≥ 20 mg/kg
Number of survivors at D60 [2, 6]: 0/10
T/C [2, 6]: 136
Number of survivors at D60 [2, 7]: 0/10
T/C [2, 7]: 188
Number of survivors at D60 [3]: 3/10
T/C [3]: 202

CO[C@@H]1O[C@@H](C)C[C@@H](NC(=O)N(CCCl)N=O)[C@@H]1O [IC. 85-1626, methyl 3-[3-(2-chloroethyl) 3-nitrosoureido] 3,4,6-trideoxyα-L-xylo-hexopyranoside]
Number of survivors on D60 ([4]; DBA2, I.P. D1, 1×20 mg/kg): 3/10
Number of survivors on D60 [4, 8]: 0/10
T/C [4, 8]: 150
Number of survivors at D60 [4, 9]: 3/10
T/C [4, 9]: 275
DL0 [5]: ≥ 20 mg/kg
LD50 ([5]; mouse, in vivo, ip): ~40 mg/kg

CO[C@H]1C[C@@H](NC(=O)N(CCCl)N=O)[C@H](O)[C@@H](C)O1 [IC. 85-1625, methyl 3-[3-(2-chloroethyl) 3-nitrosoureido] 2,3,6-trideoxyβ-L-arabino-hexopyranoside]
Number of survivors at D60 [4, 9]: 0/10
T/C [4, 9]: 190
DL0 [5]: ≥ 40 mg/kg

From patent US4902791A, “Nitrosourea derivatives, process for their preparation and medicaments containing them” (Sanofi S.A., priority 1983, dated 1990)
